Results taken from article PMC11548477, “Cathepsin B- and L-like Protease Activities Are Induced During Developmental Barley Leaf Senescence” (Plants, 2024).
Where two headings read alike, the source gives them in different places. Where a SMILES comes first, the peptide text is derived from it. [ ]: non-standard residue; d: D form. The star is where a group is joined. Sta = CC(C)C[C@H](N)[C@@H](O)CC(=O)O; Isovaleryl = CC(C)CC(=O)*

Columns and labels:
[1] = biological target: aminopeptidase B and cathepsin H-like activity (R-AMC cleavage) in crude protein extract from barley leaves; assay: R-AMC cleavage by crude protein extract from barley leaves; format: biochemical, Hordeum vulgare; conditions: for IC50 / inhibition of R-AMC cleavage: week-3 leaf extract; for concentration up to which no activity on R-AMC cleavage was seen: week-3 leaf samples
[2] = system: cathepsin B-like activity (Z-RR-AMC cleavage) in crude protein extract from barley leaves; assay: Z-RR-AMC cleavage by crude protein extract from barley leaves; format: biochemical, Hordeum vulgare
Method: (§1) Frozen leaves were homogenized with a pre-chilled pestle and mortar in cold extraction buffer (0.1 M Tris–HCl, pH 7.4, 2 mM DTT) at a ratio of 167 mg of leaves:1 mL buffer. The homogenate was centrifugated at 20,000× g for 30 min at 4 °C. The supernatant, which was kept in an ice bath, was used as a sample for measurements of peptidase activity and protein content.
(§2) Fluorogenic substrates Z-FR-AMC to determine cathepsin B- and L-like activity, and Z-RR-AMC to determine cathepsin B-like activity, were used. These substrates show fluorescence when AMC is released as a consequence of the hydrolysis of the Arg-AMC bond. The emitted fluorescence was detected with a SpectraMax M2 microplate reader (Molecular Devices, San Jose, CA, USA) with λex = 360 nm and λem = 460 nm. Before use, the substrates were dissolved in DMSO at 10 mM and frozen at −20 °C. The measurements were made in 96-well black microplates (PerkinElmer Inc, Waltham, MA, USA), and each well contained a 100 μL final volume of an appropriate 0.1 M buffer with DTT (2 mM), extract (1.6 mg of fresh weight), and substrate (25 μM). The reaction was initiated by the addition of the substrate. The final concentration of DMSO in microplate wells was 1% in all the assays. The assays were conducted at room temperature, and relative fluorescence readings were recorded over a period of 10 min.
(§3) For the inhibition assays, an inhibitor (1 µL of stock solution in DMSO) at different concentrations was added to the reaction mixture. For all inhibitors tested, the concentration of inhibitor that caused 50% inhibition of the enzymatic reaction (IC50) was calculated by plotting % inhibition against the logarithm of inhibitor concentration (at least six points). The data are presented as the mean values of at least three independent experiments.

[3] = system: cathepsin B- and L-like activity (Z-FR-AMC cleavage) in crude protein extract from barley leaves; assay: Z-FR-AMC cleavage by crude protein extract from barley leaves; format: biochemical, Hordeum vulgare
Method: as §1, §2, §3

[4] = system: aminopeptidase in barley extracts; parameters: method as in PMID 10681066, PMID 21787929; conditions: cited from earlier work
[5] = system: aminopeptidase in alfalfa extracts; parameters: method as in PMID 10681066, PMID 21787929; conditions: cited from earlier work
[6] = system: 43 kDa DCG-04-labeled cysteine protease band (cathepsin L-like protease or proteases); assay: inhibition of DCG-04 binding (activity-based labeling), 43 kDa band; parameters: species or system Hordeum vulgare; conditions: 2.5 μM DCG-04, pH 5.5, 3 h, week-4 leaf extract; for IC50: densitometric analysis of blots
Method: (§4) The protein extracts of barley leaves obtained 4 weeks after flowering were preincubated with different concentrations of the inhibitors and proteins were labeled with 2.5 μM DCG-04 at pH 5.5 for 3 h. DMSO (solvent for inhibitors) was used as a control.
(§5) Densitometric analysis was based on 2 blots (mean values ± S.D.); data were normalized to the control value (DMSO solvent without inhibitor). The chemical structures of the inhibitors and calculated values of iLogP are shown on the right side of the figure.
(§6) Protein extracts from barley leaves (67 mg of fresh weight) were incubated with 2.5 μM DCG-04 in 0.1 M citrate buffer, pH 5.5, containing 2 mM DTT. When cysteine protease inhibitors E-64 and CA-074 were used, extracts were preincubated with the inhibitors for 10 min before addition of DCG-04. […] After the incubation, reactions were stopped and proteins were precipitated with inclusion of 100 mM NaCl, along with 80% acetone for rapid precipitation. The pellets were mixed with Laemmli loading buffer and boiled for 5 min [63]. Proteins were then separated on ready-made ExpressPlus^TM 4–12% acrylamide gels (GenScript Inc., Piscataway, NJ, USA) in Tris-MOPS SDS-PAGE Running Buffer (GenScript). After SDS-PAGE, proteins were transblotted onto nitrocellulose membrane (BioTrace™ NT nitrocellulose transfer membrane, Cytiva Life Sciences, Marlborough, MA, USA) and blocked for 1 h in 5% non-fat milk in 20 mM Tris-buffered saline (150 mM NaCl), pH 7.4, containing 0.1% Tween-20 (TBST). The membranes were washed 3 × 10 min in TBST and then incubated with streptavidin-HRP (dilution 1:2000 in 1% non-fat milk in TBST) for 1 h and washed again 3 × 10 min in TBST. The membranes were developed using the SuperSignal™ West Pico PLUS Chemiluminescent Substrate (Thermo Scientific, Rockford, IL, USA) and images were obtained using GeneTools by Syngene on a GeneSys imaging platform (Syngene, Frederick, MD, USA). Luminescent signal intensity was calculated by raw volume using GeneTools analysis Version 4.0 software from Syngene.

[7] = biological target: 38 kDa DCG-04-labeled cysteine protease band (cathepsin B-like protease(s)); assay: inhibition of DCG-04 binding (activity-based labeling), 38 kDa band; parameters: species or system Hordeum vulgare; conditions: 2.5 μM DCG-04, pH 5.5, 3 h, week-4 leaf extract; for IC50: densitometric analysis of blots
Method: as §4, §5, §6

[8] = system: caseinolytic protease activity of extract obtained from week-4 barley leaves; assay: caseinolytic (total) protease activity with casein-FITC in barley leaf extract; format: biochemical, Hordeum vulgare; conditions: casein-FITC substrate; extract of week-4 barley leaves; pH 7.4
Method: as §1, §3

aleurain = system: aleurain; parameters: method as in PMID 16669011; conditions: 10 μM leupeptin; cited from earlier work
[9] = pH 7.4, 'No inhibition up to X' given as > X
[10] = pH 7.4, week-4 leaf extract, 'No inhibition up to X' given as > X, read-out: IC50, Z-RR-AMC cleavage
[11] = pH 7.4, week-4 leaf extract, 'No inhibition up to X' given as > X, read-out: IC50, Z-FR-AMC cleavage
[12] = pH 5.5, 'No inhibition up to X' given as > X
[13] = pH 5.5, week-4 leaf extract, read-out: IC50, Z-RR-AMC cleavage
[14] = pH 7.4, week-4 leaf extract, read-out: IC50, Z-RR-AMC cleavage
[15] = pH 5.5, week-4 leaf extract, read-out: IC50, Z-FR-AMC cleavage
[16] = pH 7.4, week-4 leaf extract, read-out: IC50, Z-FR-AMC cleavage

| Structure (SMILES) | IC50 [2, 10] | IC50 [3, 11] | IC50 [2, 13] | IC50 [2, 14] | IC50 [3, 15] | IC50 [3, 16] | concentration that totally blocks DCG-04 binding to the 43 kDa band [6] | IC50 [6] | IC50 [1, 9] | other results |
| --- | --- | --- | --- | --- | --- | --- | --- | --- | --- | --- |
| c1cnc2c(c1)ccc1cccnc12 [1,10-Phenanthroline] | – | – | – | – | – | – | – | – | – | IC50 ([1]; pH not given): 560 ± 110 µM; IC50 ([2]; pH not given, week-4 leaf extract, read-out: IC50, Z-RR-AMC cleavage): 3100 ± 200 µM; IC50 ([3]; pH not given, week-4 leaf extract, read-out: IC50, Z-FR-AMC cleavage): 8900 ± 300 µM |
| CCCNC(=O)[C@H]1O[C@@H]1C(=O)N[C@H](C(=O)N1CCC[C@H]1C(=O)O)[C@@H](C)CC [CA-074, (2S)-1-[(2S,3S)-3-methyl-2-[[(2S,3S)-3-(propylcarbamoyl)oxirane-2-carbonyl]amino]pentanoyl]pyrrolidine-2-carboxylic acid] | – | – | 22.7 ± 5.3 µM | 80.7 ± 12.4 µM | 11.3 ± 2.2 µM | 31 ± 5.6 µM | > 100 µM | 26400 ± 2800 nM | > 200 µM | IC50 [1, 12]: > 200 µM; concentration up to which no activity on R-AMC cleavage was seen ([1]; pH not given): > 0.2 mM; IC50 [7]: 1800 ± 600 nM |
| O=C(NCc1ccccc1)C(Cc1ccccc1)NC(=O)C1OC1C(=O)NCCc1ccc(O)cc1 [CAA0225, (2S,3S)-oxirane-2,3-dicarboxylic acid 2-[((S)-1-benzylcarbamoyl-2-phenyl-ethyl)-amide] 3-{[2-(4-hydroxy-phenyl)-ethyl]-amide}] | – | – | 0.0906 ± 0.0122 µM | 0.0116 ± 0.0035 µM | 0.12 ± 0.0143 µM | 0.0117 ± 0.0026 µM | > 6 µM | 290 ± 110 nM | > 200 µM | IC50 [1, 12]: > 200 µM; concentration up to which no activity on R-AMC cleavage was seen ([1]; pH not given): > 0.2 mM; effect on DCG-04 binding to the 38 kDa band [7]: did not block binding |
| CCOC(=O)[C@H]1O[C@@H]1C(=O)N[C@@H](CC(C)C)C(=O)N[C@@H](Cc1ccc(O)cc1)C(=O)NCCCCCC(=O)N[C@@H](CCCCNC(=O)CCCC[C@@H]1SC[C@@H]2NC(=O)N[C@@H]21)C(N)=O [DCG-04] | – | – | – | – | – | – | – | – | – | IC50 ([2]; preliminary experiments, barley leaf extracts, pH not stated, read-out: IC50, proteolytic activity with Z-RR-AMC): 1.8 ± 0.4 µM; IC50 ([3]; preliminary experiments, barley leaf extracts, pH not stated, read-out: IC50, proteolytic activity with Z-FR-AMC): 1.8 ± 0.4 µM |
| CC(=O)N[C@@H](CC(C)C)C(=O)N[C@@H](CC(C)C)C(=O)N[C@H](C=O)CCCNC(=N)N [Leupeptin] | 610 ± 30 µM | – | – | – | – | – | – | – | > 400 µM | inhibition of aleurain (aleurain): ~ 75%; inhibition of Z-FR-AMC cleavage ([3]; at 0.4 mM, pH 7.4, week-4 leaf extract): 30% inhibition at 0.4 mM |
| O=S(=O)(F)Cc1ccccc1 [PMSF, Phenylmethylsulfonyl fluoride] | – | > 2000 µM | – | – | – | – | – | – | > 2000 µM | inhibition of Z-RR-AMC cleavage ([2]; at 2 mM, pH 7.4, week-4 leaf extract): 30% inhibition at 2 mM |
| CC(C)CC(=O)N[C@H](C(=O)N[C@H](C(=O)N[C@@H](CC(C)C)[C@@H](O)CC(=O)N[C@@H](C)C(=O)N[C@@H](CC(C)C)[C@@H](O)CC(=O)O)C(C)C)C(C)C [Pepstatin A] (Isovaleryl-VV[Sta]A[Sta]-OH) | > 200 µM | > 200 µM | – | – | – | – | – | – | > 200 µM | – |

Second part, led by results:

| IC50 [2, 10] | IC50 [3, 11] | IC50 [2, 13] | IC50 [2, 14] | IC50 [3, 15] | IC50 [3, 16] | concentration that totally blocks DCG-04 binding to the 43 kDa band [6] | IC50 [6] | Structure (SMILES) | IC50 [1, 9] | other results |
| --- | --- | --- | --- | --- | --- | --- | --- | --- | --- | --- |
| > 1000 µM | > 1000 µM | – | – | – | – | – | – | CC(C)C[C@H](NC(=O)[C@@H](O)[C@H](N)Cc1ccccc1)C(=O)O [Bestatin] | 580 ± 120 µM | concentration required for complete inhibition of aminopeptidase [4]: 0.1 mM; concentration required for complete inhibition of aminopeptidase [5]: 0.1 mM |
| – | – | 0.0062 ± 0.0017 µM | 0.0081 ± 0.0019 µM | 0.0123 ± 0.0028 µM | 0.0245 ± 0.0042 µM | 1 µM | 48 ± 12.2 nM | CC(C)C[C@H](NC(=O)[C@H]1O[C@@H]1C(=O)O)C(=O)NCCCCNC(=N)N [E-64, trans-epoxysuccinyl-L-leucylamido-(4-guanidino) butane] | – | IC50 [8]: 64.4 ± 3.1 nM; inhibition of R-AMC cleavage ([1]; at 0.2–200 µM, pH 7.4): 20–25% inhibition at 0.2–200 µM; inhibition of R-AMC cleavage ([1]; at 1–200 µM, pH 5.5): 40–45% inhibition at 1–200 µM; concentration that totally blocks DCG-04 binding to the 38 kDa band [7]: 1 µM; IC50 [7]: 46.4 ± 9.1 nM |
